Data: patent US20240025906A1 (NEURON23, INC., priority 2022, published 2024)
Like-named read-outs stand apart in the source and are kept apart here.

Legend:
[1] = tested on: JAK1/TYK2 pSTAT5 (Tyr694/699) in THP-1 cell line; test: IFNa-stimulated JAK1/TYK2 pSTAT5 (Tyr694/699) inhibition cellular assay, AlphaLISA; assay type: cell-based; details: THP-1 cells, AlphaLISA (Assay B)
Outline: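 The readout is AlphaLISA signal at 615 nm for phospho-STAT5 in THP-1 lysates after IFNa stimulation (added at 100 ng/mL, 30 min, 37 °C). Cells had compound for 1 h beforehand across eight 6-fold concentrations up to 10000 nM final. IC50s are 4PL fits with bottom and Hill slope constrained.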

TYK2 JH2 = biological target: T1, TYK2 JH2 (Homo sapiens, UniProt P29597); test: TYK2 JH2 binding assay (KINOMEscan KdELECT competitive binding); details: TYK2 JH2 domain
T1 construct: purchased DiscoverX (KINOMEscan KdELECT service); host or cells: E. coli BL21-derived (T7 phage display) or HEK-293
Outline: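 Test compounds were titrated in 11 three-fold steps against JH2 fragment captured on ligand-loaded magnetic beads, with 1 h incubation at room temperature and DMSO at 0.9%. Eluted kinase was quantified by qPCR, and Kd was fitted from the dose series.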

[2] = Homo sapiens, IFNa-stimulated, read-out: Cellular_THP1_IFNa-pSTATS_TYK2
[3] = KINOMEscan KdELECT (Assay A), read-out: Biochemical TYK2_DiscoverX_JH2_BND_Kd
[4] = DiscoverX KINOMEscan KdELECT (Assay A), read-out: Biochemical TYK2_DiscoverX_JH2_BND_Kd
[5] = Homo sapiens, IFNa-stimulated, read-out: Cellular THP1_IFNa-pSTATS_IC50
[6] = KINOMEscan KdELECT (Assay A), read-out: Biochemical TYK2_JH2_Kd
[7] = Homo sapiens, IFNa-stimulated pSTAT5 (Tyr694/699), read-out: Cellular_THP1_IFNa-pSTATS_TYK2

T1 sequence (P29597 589-875 limits assumed): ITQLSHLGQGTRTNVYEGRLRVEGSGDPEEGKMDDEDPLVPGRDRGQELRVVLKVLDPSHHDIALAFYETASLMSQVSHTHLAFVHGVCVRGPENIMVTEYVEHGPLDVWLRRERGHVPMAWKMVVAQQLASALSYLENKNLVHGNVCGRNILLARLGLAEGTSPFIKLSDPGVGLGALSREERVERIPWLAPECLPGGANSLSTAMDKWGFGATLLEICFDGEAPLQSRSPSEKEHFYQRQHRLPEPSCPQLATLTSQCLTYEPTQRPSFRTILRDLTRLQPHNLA

| SMILES | IC50 [1, 2] [nM] | Kd (TYK2 JH2; [3]) [nM] | Kd (TYK2 JH2; [4]) [nM] | further results |
| --- | --- | --- | --- | --- |
| CNc1ncc(-c2nc3cc(OC)ccc3o2)c2cc(NC(=O)[C@@H]3C[C@@H]3F)ncc12 [Example 388, (1S,2S)-2-fluoro-N-(5-(5-methoxybenzo[d]oxazol-2-y1)-8-(methylamino)-2,7-naphthyridin-3-yl)cyclopropane-1-carboxamide] | ≤ 500 | – | ≤ 100 | – |
| CNc1ncc(-c2nc3cc(OC)ccc3o2)c2cc(NC(=O)[C@@H]3C[C@@H]3CF)ncc12 (single isomer, unassigned) [Example 400] | ≤ 500 | – | ≤ 100 | – |
| CNc1ncc(-c2ccc(Cl)cc2)c2cc(NC(=O)C3CC3)ncc12 [Example 16, N-(5-(4-chlorophenyl)-8-(methylamino)-2,7-naphthyridin-3-yl)cyclopropanecarboxamide] | – | – | – | IC50 [1, 5]: > 500 nM; Kd (TYK2 JH2; [6]): ≤ 100 nM |
| CNc1ncc(-c2nc3ccc(N4CCOCC4)cn3n2)c2cc(NC(=O)C3CC34CC4)ncc12 (stereo not drawn) [Example 531, N-(8-(methylamino)-5-(6-morpholino-[1,2,4]triazolo[1,5-a]pyridin-2-yl)-2,7-naphthyridin-3-yl)spiro[2.2]pentane-1-carboxamide] | ≤ 500 | – | ≤ 100 | – |
| CNc1ncc(-c2nc3cc(N4CCO[C@H](C)C4)ccc3o2)c2cc(NC(=O)[C@H]3C[C@H]3C)ncc12 [Example 419, (1S,2R)-2-methyl-N-(8-(methylamino)-5-(5-((R)-2-methylmorpholino)benzo[d]oxazol-2-yl)-2,7-naphthyridin-3-yl)cyclopropane-1-carboxamide] | ≤ 500 | – | ≤ 100 | – |
| CNc1ncc(C#Cc2ccc3c(c2)OCCO3)c2cc(NC(=O)C3CC3)ncc12 [Example 894, N-(5-((2,3-dihydrobenzo[b][1,4]dioxin-6-yl)ethynyl)-8-(methylamino)-2,7-naphthyridin-3-yl)cyclopropanecarboxamide] | ≤ 500 | ≤ 100 | – | – |
| CNc1ncc(C#Cc2ccc3nc(C)n(C(F)F)c3c2)c2cc(NC(=O)C3CC3)ncc12 [Example 763, N-(5-((1-(difluoromethyl)-2-methyl-1H-benzo[d]imidazol-6-yl)ethynyl)-8-(methylamino)-2,7-naphthyridin-3-yl)cyclopropanecarboxamide] | ≤ 500 | ≤ 100 | – | – |
| CNc1ncc(-c2ccccc2)c2cc(NC(=O)C3CC3F)ncc12 (stereo not drawn) [Example 104, 2-fluoro-N-(8-(methylamino)-5-phenyl-2,7-naphthyridin-3-yl)cyclopropane-1-carboxamide] | – | – | – | IC50 ([1]; IFNa-stimulated, read-out: Cellular THP1_IFNa-pSTATS_IC50): > 500 nM; Kd (TYK2 JH2; [6]): ≤ 100 nM |
| CNc1ncc(-c2ccccn2)c2cc(NC(=O)C3CC3)ncc12 [Example 4, N-(8-(methylamino)-5-(pyridin-2-yl)-2,7-naphthyridin-3-yl)cyclopropanecarboxamide] | – | – | – | IC50 [1, 5]: > 500 nM; Kd (TYK2 JH2; [6]): ≤ 100 nM |
| CNc1ncc(-c2nc3ccc(OC)cn3n2)c2cc(NC(=O)[C@H]3C[C@H]3C)ncc12 [Example 520, (1S,2R)—N-(5-(6-methoxy-[1,2,4]triazolo[1,5-a]pyridin-2-yl)-8-(methylamino)-2,7-naphthyridin-3-yl)-2-methylcyclopropane-1-carboxamide] | ≤ 500 | – | ≤ 100 | – |
| CNc1ncc(-c2nc3cc(NC(=O)CC4CC4)ccc3o2)c2cc(NC(=O)C3CC3)ncc12 [Example 1093, N-(5-(5-(2-cyclopropylacetamido)benzo[d]oxazol-2-yl)-8-(methylamino)-2,7-naphthyridin-3-yl)cyclopropanecarboxamide] | – | ≤ 100 | – | IC50 [1, 7]: ≤ 500 nM |
| CNc1ncc(-c2nc3cc(N4CC(N(C)C)C4)ccc3o2)c2cc(NC(=O)C3CC3)ncc12 [Example 287, N-(5-(5-(3-(dimethylamino)azetidin-1-yl)benzo[d]oxazol-2-y1)-8-(methylamino)-2,7-naphthyridin-3-yl)cyclopropanecarboxamide] | ≤ 500 | – | ≤ 100 | – |
| CNc1ncc(-c2nc3cc(N4CC(C)(OC)C4)ccc3o2)c2cc(NC(=O)C3CC3)ncc12 [Example 286, N-(5-(5-(3-methoxy-3-methylazetidin-1-yl)benzo[d]oxazol-2-yl)-8-(methylamino)-2,7-naphthyridin-3-yl)cyclopropanecarboxamide] | ≤ 500 | – | ≤ 100 | – |
| CNc1ncc(-c2nc3cc(N4CCC(F)C4)ccc3o2)c2cc(NC(=O)C3CC3)ncc12 (stereo not drawn) [Example 943, N-(5-(5-(3-fluoropyrrolidin-1-yl)benzo[d]oxazol-2-yl)-8-(methylamino)-2,7-naphthyridin-3-yl)cyclopropanecarboxamide] | ≤ 500 | ≤ 100 | – | – |
| [2H]C([2H])([2H])Nc1ncc(-c2nc3cc(OC)ccc3o2)c2cc(NC(=O)[C@@H]3C[C@@H]3F)ncc12 [Example 435, (1S,2S)-2-fluoro-N-(5-(5-methoxybenzo[d]oxazol-2-yl)-8-((methyl-d3)amino)-2,7-naphthyridin-3-yl)cyclopropane-1-carboxamide] | ≤ 500 | – | ≤ 100 | – |
| CNc1ncc(-c2ccnn2C2CCCCO2)c2cc(NC(=O)C3CC3)ncc12 (stereo not drawn) [Example 51, N-(8-(methylamino)-5-(1-(tetrahydro-2H-pyran-2-yl)-1H-pyrazol-5-yl)-2,7-naphthyridin-3-yl)cyclopropanecarboxamide] | – | – | – | IC50 [1, 5]: > 500 nM; Kd (TYK2 JH2; [6]): 1000 to 10000 nM |
| CNc1ncc(-c2nc3ccc(N4CCOCC4)cn3n2)c2cc(Nc3nccc(C(C)(C)O)c3F)ncc12 [Example 1089, 2-[3-fluoro-2-[[8-(methylamino)-5-(6-morpholino-[1,2,4]triazolo[1,5-a]pyridin-2-yl)-2,7-naphthyridin-3-yl]amino]-4-pyridyl]propan-2-ol] | – | ≤ 100 | – | IC50 [1, 7]: ≤ 500 nM |
| CNc1ncc(-c2ccc(Cn3ccc(=O)cc3)cc2)c2cc(NC(=O)C3CC3)ncc12 [Example 869, N-(8-(methylamino)-5-(4-((4-oxopyridin-1(4H)-yl)methyl)phenyl)-2,7-naphthyridin-3-yl)cyclopropanecarboxamide] | > 500 | ≤ 100 | – | – |
| CNc1ncc(-c2nc3cc(OC)ccc3o2)c2cc(NC(=O)[C@@H]3C[C@@H]3CF)ncc12 (racemic) [Example 399, 2-(fluoromethyl)-N-(5-(5-methoxybenzo[d]oxazol-2-yl)-8-(methylamino)-2,7-naphthyridin-3-yl)cyclopropane-1-carboxamide] | ≤ 500 | – | ≤ 100 | – |

The next lines start with results.

| IC50 [1, 2] [nM] | Kd (TYK2 JH2; [3]) [nM] | Kd (TYK2 JH2; [4]) [nM] | SMILES | further results |
| --- | --- | --- | --- | --- |
| ≤ 500 | ≤ 100 | – | CNc1ncc(-c2cc3cc(OC)ccn3n2)c2cc(NC(=O)C3CC3)ncc12 [Example 875, N-(5-(5-methoxypyrazolo[1,5-a]pyridin-2-yl)-8-(methylamino)-2,7-naphthyridin-3-yl)cyclopropanecarboxamide] | – |
| ≤ 500 | ≤ 100 | – | CNc1ncc(C#Cc2cc3ccc(OC)cn3n2)c2cc(NC(=O)C3CC3)ncc12 [Example 766, N-(5-((6-methoxypyrazolo[1,5-a]pyridin-2-yl)ethynyl)-8-(methylamino)-2,7-naphthyridin-3-yl)cyclopropanecarboxamide] | – |
| ≤ 500 | ≤ 100 | – | CNc1ncc(C#Cc2ccncc2OC)c2cc(NC(=O)C3CC3)ncc12 [Example 612, N-(5-((3-methoxypyridin-4-yl)ethynyl)-8-(methylamino)-2,7-naphthyridin-3-yl)cyclopropanecarboxamide] | – |
| ≤ 500 | ≤ 100 | – | CNc1ncc(C#Cc2ncn(C)n2)c2cc(NC(=O)C3CC3)ncc12 [Example 597, N-(5-((1-methyl-1H-1,2,4-triazol-3-yl)ethynyl)-8-(methylamino)-2,7-naphthyridin-3-yl)cyclopropanecarboxamide] | – |
| ≤ 500 | – | ≤ 100 | CNc1ncc(-c2nc3ccc(C)cn3n2)c2cc(NC(=O)C3CC3)ncc12 [Example 503, N-(5-(6-methyl-[1,2,4]triazolo[1,5-a]pyridin-2-yl)-8-(methylamino)-2,7-naphthyridin-3-yl)cyclopropanecarboxamide] | – |
| > 500 | ≤ 100 | – | CNc1ncc(CCc2cc(OC)cc(-c3ncnn3C)c2)c2cc(NC(=O)C3CC3)ncc12 [Example 826, N-(5-(3-methoxy-5-(1-methyl-1H-1,2,4-triazol-5-yl)phenethyl)-8-(methylamino)-2,7-naphthyridin-3-yl)cyclopropanecarboxamide] | – |
| ≤ 500 | ≤ 100 | – | CNc1ncc(-c2ccc(O)cc2)c2cc(NC(=O)C3CC3)ncc12 [Example 861, N-(5-(4-hydroxyphenyl)-8-(methylamino)-2,7-naphthyridin-3-yl)cyclopropanecarboxamide] | – |
| ≤ 500 | ≤ 100 | – | CNc1ncc(C#Cc2ccc3nnn(C)c3c2)c2cc(NC(=O)C3CC3)ncc12 [Example 595, N-(5-((1-methyl-1H-benzo[d][1,2,3]triazol-6-yl)ethynyl)-8-(methylamino)-2,7-naphthyridin-3-yl)cyclopropanecarboxamide] | – |
